Patent US10633383B2, “Compounds for the treatment, alleviation or prevention of disorders associated with Tau aggregates” (AC Immune SA, priority 2018, dated 2020)
pEC50: −log10 of the molar value.

Assays:
[1] = target: T1, Tau K18 fragment (amino acids 244 to 372 of human Tau441) aggregates (Homo sapiens, UniProt P10636); assay: Tau K18 disaggregation assay by ThT; assay type: biochemical; conditions: 2 μM K18 aggregates, 30 minutes at RT, ThT fluorescence
T1 construct: encompassing amino acids 244 to 372 of the longest isoform (2N4R) of human Tau441; host or cells: bacteria

[2] = system: human neuroblastoma cell line overexpressing the full-length form of human Tau carrying the P301L mutation; assay: Reduction of intracellular Tau aggregation (AlphaLISA); assay type: cell-based; conditions: compound at 5 μM, 24 h, aggregated Tau normalized to total Tau, relative to DMSO-treated cells
Description: Reduction of Intracellular Tau Aggregation
A human neuroblastoma cell line overexpressing the full-length form of human Tau carrying the P301L mutation was cultured in complete medium [DMEM-F12 4.5 g/L Glutamax (Invitrogen), 15% FBS (Biochrom), 1% Peni/Strep (Invitrogen) supplemented with 2.5 μg/ml of G418 (Sigma-Aldrich) selection antibiotic]. The day before the experiment 5×10^5 cells/well were plated in a 6 well plate in 3 mL of complete medium. The next day, cells were incubated with DMSO or a compound of the present invention at a 5 μM for additional 24 h at 37° C. After incubation, cells were trypsinized, resuspended in 100 μl of homogenization buffer [25 mM Tris-HCl pH 7.4, 150 mM NaCl, 1 mM EDTA, 1 mM EGTA containing phosphatase inhibitors (30 mM NaF, 0.2 mM Na3VO4, 1 nM Okadaic acid, 1 mM PMSF, 5 mM Na4P2O7) and protease inhibitor cocktail (Complete™, Roche)], and then physically lysed with three rapid cycles of freezing and thawing. Samples were then directly tested in the AlphaLISA assay. Phosphorylated, aggregated, and total Tau were quantified by AlphaLisa using the following antibody pairs: • HT7-Acceptor beads+biotin (BT)-Tau13-Donor beads: Total Tau • HT7-Acceptor beads+biotin (BT)-HT7-Donor beads: Aggregated human Tau
The Tau13 (Abcam) was biotinylated using EZ-Link® NHS-PEO Solid Phase biotinylation kit (Thermo Scientific), while the HT7-biotin was from a commercial source (Thermo Scientific).
For each antibody pairs the concentration of acceptor beads and biotinylated antibodies was optimized. All samples were first tested in a dilution series in PBS in order to identify the linear range and optimal dilution for each sample and assay. For the final protocol, the following reagents were added in a 384-well white OptiPlate (PerkinElmer): • 5 μL of test diluted sample • 20 μL of the mixture biotin-mAb acceptor beads at the following final concentrations: • HT7-BT at 1.25 nM in combination with HT7-Acc beads at 10 μg/ml • Tau13-BT at 5 nM in combination with HT7-Acc beads at 2.5 μg/ml
After incubation of this mixture at room temperature for 1 h, 25 μL of Streptavidin Donor beads (Perkin Elmer) at 25 μg/mL were added in the dark. Plates were analyzed after 30 min incubation using the EnSpire Alpha instrument and EnSpire Workstation version 3.00. Data for aggregated Tau were normalized to total Tau and then expressed as percentage of the DMSO-treated cells.

[3] = system: rTg4510 mice; assay: Total human Tau in CSF of rTg4510 mice (AlphaLISA); assay type: in vivo, mouse; conditions: 30 mg/kg bi-daily by gavage for 1 month, vs vehicle treated rTg4510 mice (FIG. 1)
From the text: In Vivo Efficacy of the Compounds of the Present Invention In Vivo Study Design for the Testing of Example 12 and Example 45
Double transgenic rTg4510 mice express the full-length human Tau carrying the P301L mutation (Tau4R0N-P301L) under the control of the tet-inducible CaMKII promoter (Ramsden et al., J. Neurosci., 2005⋅25(46):10637-10647). Single transgenic mice expressing only the tetracycline-controlled transactivator (tTA) were used as genotype controls. The study comprised 4 treatment groups (n=15 female for tTa group and n=11 female mice/group for the treatment) with the following group distribution (see Table 9). […]
Mice were deeply anesthetized by standard injectable anesthesia and transcardially perfused with cold PBS. […] Total human Tau in CSF Tau was quantified using the following antibody pairs: HT7-Acceptor beads+biotin (BT)-Tau13-donor beads. […]
After incubation of this mixture at room temperature for 1 hour, 25 μL of Streptavidin Donor beads (Perkin Elmer) at 25 μg/mL were added in the dark. Plates were analyzed after 30 minute incubation using the EnSpire Alpha instrument and EnSpire Workstation version 3.00. Data were analyzed by 1-way ANOVA followed by post-hoc comparisons and shown statistics refers to differences compared to vehicle treated rTg4510 mice.

T1 sequence (P10636 561-689): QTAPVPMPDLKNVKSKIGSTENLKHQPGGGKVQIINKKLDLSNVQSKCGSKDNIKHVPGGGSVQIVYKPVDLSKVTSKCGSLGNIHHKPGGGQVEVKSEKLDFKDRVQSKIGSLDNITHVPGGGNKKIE

pEC50 [1]: > 5.00
Structure (SMILES): Fc1ccc2[nH]c3c(c2c1)CN(c1ccc2nc(N4CCOCC4)oc2c1)CC3 [Example 12]
inhibition at 5 µM [2]: 25 to 50%
Tau levels in CSF [3]: decreased Tau levels in CSF
